Results as given in patent publication US20140315857A1, “N- (4 -QUINOLINYLMETHYL) SULFONAMIDE DERIVATIVES AND THEIR USE AS ANTHELMINTICS” (E I DU PONT DE NEMOURS AND COMPANY, priority 2011, published 2014).

Assays:
Haemonchus contortus [1] = assay: Test B: Haemonchus contortus burdens in infected mice after oral gavage; format: in vivo; conditions: oral gavage 10.0 mg/kg body weight on day 0, Haemonchus contortus burdens on day 5 relative to vehicle-dosed controls
Protocol: For evaluating control of the barber pole worm (Haemonchus contortus), mice were each infected orally with 600 L3 Haemonchus contortus larvae on Day −3. On day 0, the infected mice were gavaged with a test compound (n=1) in a propylene glycol/glycerol formal solution at the rate of 10.0 mg/kg body weight. On day 5, the mice were euthanized and evaluated for Haemonchus contortus burdens relative to the vehicle-dosed controls. The range of means for the number of Haemonchus contortus in the various tests in which these compounds were studied was 92-184.

Haemonchus contortus [2] = assay: Test A: control of barber pole worm, eggs in culture media, mortality at L3 stage; format: cell-based; conditions: 120 h
Protocol: For evaluating control of the barber pole worm (Haemonchus contortus), a test compound was solubilized in culture media (Earle's Balanced Salt Solution) containing Haemonchus contortus eggs to obtain a final test compound concentration of 2.0 ppm. The test unit was evaluated for mortality 120 hours later after which the eggs had hatched and had advanced to the L3 stage.

Row | SMILES | % Efficacy (Haemonchus contortus [1]) [%] | mortality at 2 ppm (Haemonchus contortus [2]) [%] | melting point [°C]
1 | O=S(=O)(NCc1ccnc2ccccc12)c1ccc(C#CC2CC2)cc1 [Compound 2, 4-(2-cyclopropylethynyl)-N-(4-quinolinylmethyl)benzenesulfonamide] | 60 | 100 | 
2 | O=S(=O)(NCc1ccnc2ccccc12)c1ccc(C#Cc2ccccn2)cc1 [Compound 4, 4-[2-(2-pyridinyl)ethynyl]-N-(4-quinolinylmethyl)benzenesulfonamide] | 89 | 100 | 
3 | O=S(=O)(NCc1ccnc2ccccc12)c1ccc(C#CC2CC2)s1 [Compound 15, 5-(2-cyclopropylethynyl)-N-(4-quinolinylmethyl)-2-thiophenesulfonamide] | 93 | 100 | 
4 | O=S(=O)(NCc1ccnc2ncccc12)c1ccc(C#CC2CC2)cc1 [Compound 48, 4-(2-cyclopropylethynyl)-N-(1,8-naphthyridin-4-ylmethyl)-benzenesulfonamide] |  |  | 193 to 195
